Data published in US4709027A, “Bicyclic spirosulfonimides with psychotropic activity” (American Home Products Corporation, priority 1986, dated 1987).
Like-named read-outs stand apart in the source and are kept apart here.

How the values were obtained:
[1] = conditioned avoidance (discrete trial) test; format: in vivo, male CD rats; settings: Rattus norvegicus, po, rats, read-out: AB50 (dose producing 50% block in avoidance responding), discrete trial
Description: The antipsychotic activity of the compounds of the invention is assessed via the conditioned avoidance (discrete trial) test. This test has excellent clinical correlation for antipsychotic activity.
Male CD rats (Charles River) maintained at approximately 400-450 gm body weight are used. Rats trained previously are placed in plexiglass experimental chambers equipped with a response lever, house light, and sonalert. A steel grid floor is wired for presentation of electric shock. Each trial consists of a fifteen-second warning tone (conditioned stimulus), continuing for an additional fifteen seconds accompanied by electric shock, (unconditioned stimulus). The rat can terminate a trial at any point by depression of the response lever. […]
The following experimental parameters are recorded by computer; (1) the number of interval responses, (2) the number of avoidance responses, (3) the number of escape responses, and (4) the number of trials in which no response occurred.
Response counts are summed over all subjects at a given dose. […] This number is expressed as a percentage of the total trials. Control performance is arbitrarily assigned a value of 100% for avoidance and the dose calculated to produce a 50% block in avoidance responding (AB50) is obtained from a dose-effect regression line fitted by the method of least squares. […]

[2] = test system: 5-HT-1A serotonin receptor; test: ex vivo inhibition of 5-HT-1A serotonin receptor binding (3H-8-OH-DPAT, hippocampal membranes); set-up: species or system rats; settings: at 1 μM of drug concentration
Description: Several groups of rats (4-6 rats/group) are injected with test compound or the appropriate vehicle. Thirty minutes later, unless otherwise noted, rats are decapitated and their brains removed. Various brain regions are dissected and rapidly frozen and maintained at -70° C. until used.
Hippocampal tissue is dissected and homogenized on ice in 40 vols of buffer (50 mM Tris HCl, pH=7.7) using a Polytron homogenizer at setting 5 for 3×15 sec bursts. The homogenate is then centrifuged at 20,000 rpm (RC5-B; 50,000 g) and the supernatant discarded. The pellet is resuspended in 40 vols of the same buffer and incubated at 37° C. for 10 minutes to aid in the removal of endogenous serotonin. the homogenate is then centrifuged (as above) and the supernatant discarded. […]
The homogenate (50 μl; 0.4-0.6 mg protein/sample) is incubated with 100 μl (1.5-1.8 nM) ^3 H-8-hydroxy-2-(di-n-propylamino)tetraline in a final volume of 2 ml of buffer for 10 minutes at 37° C. […] The vials are then counted in a Packard 460 CD scintillation counter.
Specific binding is calculated for each of the treatment protocols and is defined as total binding less binding in the presence of excess unlabeled serotonin (1 μM). Specific binding obtained in vehicle-treated rats is compared to that obtained in animals receiving a single or various doses of test compound and expressed as percent of control.

[3] = conditioned avoidance (shelf-jump response) test; format: in vivo, male CD rats; settings: i.p., rats
Excerpt: A test designed to determine the potential antipsychotic activity of the compounds of the invention is the conditioned avoidance (shelf-jump response) test.
Male CD rats (Charles River) maintained at approximately 400-450 gm body weight are used. […] A moveable wall, controlled by a motor, determines whether the rat has access to the shelf at any time during the experiment. The experimental chamber also contains a house light and sonalert. A steel grid floor in the main chamber is wired for presentation of electric shock. Each trial consists of a fifteen-second warning tone (conditioned stimulus), continuing for an additional fifteen seconds accompanied by electric shock, (unconditioned stimulus). A response (jumping onto the exposed shelf of the upper chamber) occurring during the initial fifteen-second warning tone is considered an avoidance response, while a response occurring during shock delivery is considered an escape response. Trials are presented on a fixed interval schedule of one minute. The session consists of thirty-six trials. Animals are run twice weekly with control sessions always preceding a drug run, and with at least one day intervening. Compounds are administered i.p. or p.o. at appropriate pre-treatment times to a minimum of five rats at each dose level over a range of doses.
The following experimental parameters are recorded by computer: (1) the number of avoidance responses, (2) the number of escape responses, and (3) the number of trials in which no response occurred.
Response counts are summed over all subjects at a given dose. […] This number is expressed as a percentage of the total trials. Control performance is arbitrarily assigned a value of 100% for avoidance and the dose calculated to produce a 50% block in avoidance responding (AB50) is obtained from a dose-effect regression line fitted by the method of least squares. Potential anti-psychotic compounds suppress avoidance responding and increase escape responding.

displacement of specific 3H-8-OH-DPAT binding from hippocampal membranes [2] [%]	Compound	ED50 ([1]; peroral administration, range in parentheses) [mg/kg]	ED50 ([1]; perorally, unit inferred) [mg/kg]	Active at (dose), shelf-jump [3] [mg/kg]
–	O=C1CC2(CCCC2)CC(=O)N1CCCCN1CCN(c2ncccn2)CC1 [Buspirone, 8-[4-[4-(2-pyrimidinyl)-1-piperazinyl]butyl]-8-azaspiro[4.5]decane-7,9-dione, reference compound]	47.9	–	–
61	CC1CC(=O)N(CCCCN2CCN(c3cncc(Cl)n3)CC2)S(=O)(=O)N1 (stereo not drawn) [Example 1, 2-[4-[4-(6-Chloro-2-pyrazinyl)-1-piperazinyl]butyl]-5,6-dihydro-5-methyl-2H-1,2,6-thiadiazin-3(4H)-one 1,1 dioxide]	–	32.5	40
–	O=C1N(CCCCN2CCN(c3ncccn3)CC2)S(=O)(=O)NC12CCCCC2 [Example 2, 3-[4-[4-(2-Pyrimidinyl)-1-piperazinyl]butyl]2-thia-1,3-diazaspiro[4,5]decan-4-one 2,2-dioxide]	–	–	40
–	CC1CC(=O)N(CCCCN2CCN(c3ncccn3)CC2)S(=O)(=O)N1 (stereo not drawn) [Example 3, 5,6-Dihydro-5-methyl-2-[4-[4-(2-pyrimidinyl)-1-piperazinyl]butyl]-2H-1,2,6-thiadiazin-3(4H)-one 1,1-dioxide]	–	–	40
